In patent publication US7763602B2, “Pyrrole derivatives as antimycobacterial compounds” (priority 2002, dated 2010):
Values after ≈ are worked out from the molar mass of the structure shown.

Columns and labels:
[1] = tested on: M. tuberculosis H37Rv ATCC 27294; test: In vitro growth inhibition assay, BACTEC 460 TB system; assay type: cell-based, Mycobacterium tuberculosis; parameters: key: +: If ΔGI of test vial is less than that of the control vial the culture was sensitive to the test compound; settings: final concentration 6.25 μg/ml
M. tuberculosis 27294 = test: In vitro agar dilution assay (MIC), reference strain; assay type: cell-based, Mycobacterium tuberculosis; settings: for MIC: Mycobacterium tuberculosis, 27294, Table I, read-out: MIC (μg/ml) against M. tuberculosis-27294; for MIC (μg/ml) against M. tuberculosis-27294: Table I
[2] = tested on: M. tuberculosis clinical isolates, sensitive; test: microbe, parasite or virus in culture; assay type: cell-based, Mycobacterium tuberculosis; settings: for MIC: Mycobacterium tuberculosis, read-out: MIC (μg/ml) against Clinical isolates Sensitive; for MIC (μg/ml) against Clinical isolates Sensitive: Table I, agar dilution

Row | Compound | melting point [°C] | Growth inhibition of M. tuberculosis 27294 [1] | MIC (M. tuberculosis 27294) [µg/mL] | MIC [2] [µg/mL] | MIC (μg/ml) against M. tuberculosis-27294 (M. tuberculosis 27294) [µg/mL] | MIC (μg/ml) against Clinical isolates Sensitive [2]
1 | Cc1cc(CN2CCN(C(c3ccccc3)c3ccccc3)CC2)c(-c2ccc(Cl)cc2)n1-c1ccc(F)cc1F | 76 to 78 | – | – | – | – | –
2 | COc1ccccc1N1CCN(Cc2cc(C)n(-c3ccc(F)cc3F)c2-c2ccccc2)CC1 [compound 56, 1-{[1-(2,4-difluorophenyl)-5-methyl-2-phenylpyrrol-3-yl]methyl}-4-(2-methoxyphenyl) piperazine] | 60 to 62 | + | 8 (≈ 16.9 µM) | 8 (≈ 16.9 µM) | – | –
3 | Cc1c(CN2CCN(c3cccc(C(F)(F)F)c3)CC2)cc(-c2ccc(Cl)cc2)n1NC(=O)c1cnccn1 [compound 39, N-(5-(4-chlorophenyl)-3-{[4-(3-trifluoromethylphenyl)piperazinyl]methyl}-2-methylpyrrolyl)pyrazin-2-ylcarboxamide] | – | + | – | – | 4.0 (≈ 7.21 µM) | 4.0 to 8.0 µg/mL
4 | COc1ccccc1N1CCN(Cc2cc(-c3ccccc3)n(NC(=O)c3cnccn3)c2C)CC1 [compound 26, N-(3-{[4-(2-methoxyphenyl)piperazinyl]methyl}-2-methyl-5-phenylpyrrolyl) pyrazin-2-ylcarboxamide] | – | + | – | – | 1.0 (≈ 2.07 µM) | 2.0 µg/mL (≈ 4.14 µM)
5 | Cc1c(CN2CCN(c3ccccn3)CC2)cc(-c2ccc(Cl)cc2)n1-c1ccc(F)cc1F [compound 47, 1-{[1-(2,4-difluorophenyl)-5-(4-chlorophenyl)-2-methylpyrrol-3-yl]methyl}-4-(2-pyridyl)piperazine] | – | + | 0.25 (≈ 0.522 µM) | 0.25 to 1 (≈ 0.522 to 2.09 µM) | – | –
6 | Cc1cc(CN2CCN(c3ccccn3)CC2)c(-c2ccccc2)n1-c1ccc(F)cc1F [compound 58, 1-{[1-(2,4-difluorophenyl)-5-methyl-2-phenylpyrrol-3-yl]methyl}-4-(2-pyridyl) piperazine] | – | + | 8 (≈ 18 µM) | 8 (≈ 18 µM) | – | –
7 | Cc1c(CN2CCN(c3ccc(F)cc3)CC2)cc(-c2ccccc2)n1NC(=O)c1ccncc1 [compound 11, N-(3-{[4-(4-fluorophenyl)piperazinyl]methyl}-2-methyl-5-phenylpyrrolyl)-4-pyridylcarboxamide] | – | + | – | – | 1.0 (≈ 2.13 µM) | 0.5 to 1.0 µg/mL
8 | Cc1cc(CN2CCN(c3ccccn3)CC2)c(-c2ccccc2)n1-c1ccccn1 | 135 to 137 | – | – | – | – | –
9 | COc1ccccc1N1CCN(Cc2cc(-c3ccccc3)n(-c3ccc(F)cc3F)c2C)CC1 [compound 52, 1-{[1-(2,4-difluorophenyl)-2-methyl-5-phenylpyrrol-3-yl]methyl}-4-(2-methoxyphenyl)piperazine] | – | + | 8 (≈ 16.9 µM) | 8 (≈ 16.9 µM) | – | –
10 | Cc1ccc(Cl)cc1N1CCN(Cc2cc(-c3ccc(Cl)cc3)n(-c3ccc(Cl)cc3)c2C)CC1 [compound 10, 1-{[1,5-bis(4-chlorophenyl)-2-methylpyrrol-3-yl]methyl}-4-(5-chloro-2-methylphenyl) piperazine] | – | + | 1 (≈ 1.91 µM) | 1 to 2 (≈ 1.91 to 3.81 µM) | – | –
11 | Cc1cc(CN2CCN(c3ccccn3)CC2)c(-c2ccccc2)n1NC(=O)c1cnccn1 [compound 34, N-(3-{[4-(2-pyridyl)piperazinyl]methyl}-5-methyl-2-phenylpyrrolyl)pyrazin-2-ylcarboxamide] | – | + | – | – | 16.0 (≈ 35.3 µM) | 16.0-16.0 μg/ml
12 | COc1ccccc1N1CCN(Cc2cc(C)n(-c3cccc4ccccc34)c2-c2ccc(Cl)cc2)CC1 [compound 63, 1-{[2-(4-chlorophenyl)-5-methyl-1-naphthylpyrrol-3-yl]methyl}-4-(2-methoxyphenyl)piperazine] | – | + | – | – | 8.0 (≈ 15.3 µM) | 4.0 to 8.0 µg/mL
13 | Cc1c(CN2CC[S+]([O-])CC2)cc(-c2ccccc2)n1-c1ccccc1 [compound 87, 4-[(2-methyl-1,5-diphenylpyrrol-3-yl)methyl]1,4-thiazaperhydroin-1-one] | – | + | – | – | 8.0 (≈ 21.9 µM) | 8.0 to 16.0 µg/mL
14 | CO[C@H]1/C=C/O[C@@]2(C)Oc3c(C)c(O)c4c(O)c(c(/C=N/N5CCN(C)CC5)c(O)c4c3C2=O)NC(=O)/C(C)=C\C=C\[C@H](C)[C@H](O)[C@@H](C)[C@@H](O)[C@@H](C)[C@H](OC(C)=O)[C@@H]1C [Rifampicin, reference compound] | – | + | 0.25 (≈ 0.304 µM) | 0.25 (≈ 0.304 µM) | – | –
15 | Cc1c(CN2CCSCC2)cc(-c2ccc(Cl)cc2)n1NC(=O)c1ccncc1 [compound 89, N-[5-(4-chlorophenyl)-2-methyl-3-(1,4-thiazaperhydroin-4-ylmethyl)pyrrolyl]-4-pyridylcarboxamide] | – | + | – | – | 1.0 (≈ 2.34 µM) | 2.0 to 8.0 µg/mL
16 | Cc1cc(CN2CCN(c3cccc(C(F)(F)F)c3)CC2)c(-c2ccccc2)n1-c1ccc(F)cc1F [compound 57, 1-{[1-(2,4-difluorophenyl)-5-methyl-2-phenylpyrrol-3-yl]methyl}-4-(3-trifluoromethylphenyl)piperazine] | – | + | > 16 | > 16 | – | –
17 | Cc1c(CN2CCN(Cc3ccc4c(c3)OCO4)CC2)cc(-c2ccccc2)n1NC(=O)c1cnccn1 [compound 29, N-(3-{[4-(2H-benzo[d]1,3-dioxolen-5-ylmethyl)piperazinyl]methyl}-2-methyl-5-phenylpyrrolyl)pyrazin-2-ylcarboxamide] | – | + | – | – | >16.0 | >16.0 µg/mL
18 | Cc1c(CN2CCN(c3ccc(F)cc3)CC2)cc(-c2ccc(Cl)cc2)n1-c1ccc(F)cc1F [compound 44, 1-{[1-(2,4-difluorophenyl)-5-(4-chlorophenyl)-2-methylpyrrol-3-yl]methyl}-4-(4-fluorophenyl)piperazine] | – | + | 1 (≈ 2.02 µM) | 1 to 2 (≈ 2.02 to 4.03 µM) | – | –
19 | Cc1c(CN2CCN(Cc3ccccc3)CC2)cc(-c2ccccc2)n1NC(=O)c1ccncc1 [compound 15, N-(2-methyl-5-phenyl-3-{[4-benzylpiperazinyl]methyl}pyrrolyl)-4-pyridylcarboxamide] | – | + | – | – | 0.5 (≈ 1.07 µM) | 0.5 to 1.0 µg/mL
20 | Cc1c(CN2CCN(Cc3ccc4c(c3)OCO4)CC2)cc(-c2ccccc2)n1NC(=O)c1ccncc1 [compound 17, N-(3-{[4-(2H-benzo[d]1,3-dioxolan-5-ylmethyl)piperazinyl]methyl}-2-methyl-5-phenylpyrrolyl)-4-pyridylcarboxamide] | – | + | – | – | 2.0 (≈ 3.92 µM) | 2.0 to 4.0 µg/mL
21 | Cc1cc(CN2CCN(C(c3ccccc3)c3ccccc3)CC2)c(-c2ccccc2)n1NC(=O)c1cnccn1 [compound 36, N-(3-{[4-(diphenylmethyl)piperazinyl]methyl}-5-methyl-2-phenylpyrrolyl) pyrazin-2-ylcarboxamide] | – | + | – | – | 0.5 (≈ 0.921 µM) | 0.5 to 1.0 µg/mL
22 | CCC(CO)n1c(-c2ccccc2)cc(CN2CCSCC2)c1C (stereo not drawn) [compound 91, 2-[2-methyl-5-phenyl-3-(1,4-thiazaperhydroin-4-ylmethyl)pyrrolyl]butan-1-ol] | – | + | – | – | 4.0 (≈ 11.6 µM) | 4.0 to 8.0 µg/mL
23 | Cc1c(CN2CCS(=O)(=O)CC2)cc(-c2ccccc2)n1-c1ccccc1 [compound 88] | – | + | – | – | 0.5 (≈ 1.31 µM) | 1.0 to 4.0 µg/mL
24 | Cc1c(CN2CCN(c3ccccn3)CC2)cc(-c2ccc(Cl)cc2)n1-c1ccc(Cl)cc1 [compound 4, 1-{[1,5-bis(4-chlorophenyl)-2-methylpyrrol-3-yl]methyl}-4-(2-pyridyl) piperazine] | – | + | 0.5 (≈ 1.05 µM) | 0.25 to 1 (≈ 0.524 to 2.09 µM) | – | –
25 | Cc1cc(CN2CCN(c3ccc(F)cc3)CC2)c(-c2ccccc2)n1NC(=O)c1ccncc1 [compound 22, N-(3-{[4-(4-fluorophenyl)piperazinyl]methyl}-5-methyl-2-phenylpyrrolyl)-4-pyridylcarboxamide] | – | + | – | – | 2.0 (≈ 4.26 µM) | 2.0 to 4.0 µg/mL
